# Reference: PubChem BioAssay (NCI)
#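 Compound exposure: 48 hours, 5 concentrations, 96-well plates. The concentration for full growth arrest is given as TGI.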
# Tests used:
# Assay in all cases: growth of human tumour cells (NCI), 48 h
# SW-620 colon = test system: SW-620 colon
# HCC-2998 colon = test system: HCC-2998 colon
# SF-268 CNS = test system: SF-268 CNS
# RXF 393 renal = test system: RXF 393 renal
# PC-3 prostate = test system: PC-3 prostate
# U251 CNS = test system: U251 CNS
# CCRF-CEM leukemia = test system: CCRF-CEM leukemia
# BT-549 breast = test system: BT-549 breast
# NCI-H23 lung = test system: NCI-H23 lung
# MALME-3M melanoma = test system: MALME-3M melanoma
# M14 melanoma = test system: M14 melanoma
# SF-539 CNS = test system: SF-539 CNS
# SNB-75 CNS = test system: SNB-75 CNS
# KM12 colon = test system: KM12 colon
# CAKI-1 renal = test system: CAKI-1 renal
# DU-145 prostate = test system: DU-145 prostate
# A498 renal = test system: A498 renal
# HS 578T breast = test system: HS 578T breast
# EKVX NSCLC = test system: EKVX NSCLC
# NCI-H460 lung = test system: NCI-H460 lung
# MDA-MB-231 breast = test system: MDA-MB-231 breast
# SK-MEL-5 melanoma = test system: SK-MEL-5 melanoma
# OVCAR-4 ovarian = test system: OVCAR-4 ovarian
# NCI-H226 lung = test system: NCI-H226 lung
# SK-MEL-28 melanoma = test system: SK-MEL-28 melanoma
# MCF7 breast = test system: MCF7 breast
# COLO 205 colon = test system: COLO 205 colon
# NCI-H522 lung = test system: NCI-H522 lung
# HOP-92 NSCLC = test system: HOP-92 NSCLC
# UO-31 renal = test system: UO-31 renal
# ACHN renal = test system: ACHN renal
# UACC-62 melanoma = test system: UACC-62 melanoma
# MDA-N = test system: MDA-N
# IGROV1 ovarian = test system: IGROV1 ovarian
# HCT-116 colon = test system: HCT-116 colon
# HCT-15 colon = test system: HCT-15 colon
# K-562 leukemia = test system: K-562 leukemia
# RPMI-8226 leukemia = test system: RPMI-8226 leukemia
# T-47D breast = test system: T-47D breast
# TK-10 renal = test system: TK-10 renal
# NCI/ADR-RES ovarian = test system: NCI/ADR-RES ovarian
# OVCAR-5 ovarian = test system: OVCAR-5 ovarian
# HOP-62 NSCLC = test system: HOP-62 NSCLC
# HT29 colon = test system: HT29 colon
# SK-MEL-2 melanoma = test system: SK-MEL-2 melanoma
# SF-295 CNS = test system: SF-295 CNS
# MDA-MB-435 = test system: MDA-MB-435
# HL-60(TB) leukemia = test system: HL-60(TB) leukemia
# OVCAR-3 ovarian = test system: OVCAR-3 ovarian
# SNB-19 CNS = test system: SNB-19 CNS
# UACC-257 melanoma = test system: UACC-257 melanoma
# OVCAR-8 ovarian = test system: OVCAR-8 ovarian
# SK-OV-3 ovarian = test system: SK-OV-3 ovarian
# MOLT-4 leukemia = test system: MOLT-4 leukemia
# SR leukemia = test system: SR leukemia
# 786-0 renal = test system: 786-0 renal
# SN12C renal = test system: SN12C renal
# A549 NSCLC = test system: A549 NSCLC
# LOX IMVI melanoma = test system: LOX IMVI melanoma
smiles,measurement,setting,value
C1CSC2=C(S1)SC1=C(S2)SC(=C2SC3=C(SC4=C(SCCS4)S3)S2)S1,TGI,SW-620 colon,> 100 µM
same,TGI,HCC-2998 colon,> 100 µM
same,TGI,SF-268 CNS,> 100 µM
same,TGI,RXF 393 renal,> 100 µM
same,TGI,PC-3 prostate,> 100 µM
same,TGI,U251 CNS,> 100 µM
same,TGI,CCRF-CEM leukemia,> 100 µM
same,TGI,BT-549 breast,> 100 µM
same,TGI,NCI-H23 lung,> 100 µM
same,TGI,MALME-3M melanoma,> 100 µM
same,TGI,M14 melanoma,> 100 µM
same,TGI,SF-539 CNS,> 100 µM
same,TGI,SNB-75 CNS,> 100 µM
same,TGI,KM12 colon,> 100 µM
same,TGI,CAKI-1 renal,> 100 µM
same,TGI,DU-145 prostate,> 100 µM
same,TGI,A498 renal,> 100 µM
same,TGI,HS 578T breast,> 100 µM
same,TGI,EKVX NSCLC,> 100 µM
same,TGI,NCI-H460 lung,> 100 µM
same,TGI,MDA-MB-231 breast,> 100 µM
same,TGI,SK-MEL-5 melanoma,> 100 µM
same,TGI,OVCAR-4 ovarian,> 100 µM
same,TGI,NCI-H226 lung,> 100 µM
same,TGI,SK-MEL-28 melanoma,> 100 µM
same,TGI,MCF7 breast,> 100 µM
same,TGI,COLO 205 colon,> 100 µM
same,TGI,NCI-H522 lung,> 100 µM
same,TGI,HOP-92 NSCLC,> 100 µM
same,TGI,UO-31 renal,> 100 µM
same,TGI,ACHN renal,> 100 µM
same,TGI,UACC-62 melanoma,> 100 µM
same,TGI,MDA-N,> 100 µM
same,TGI,IGROV1 ovarian,> 100 µM
same,TGI,HCT-116 colon,> 100 µM
same,TGI,HCT-15 colon,> 100 µM
same,TGI,K-562 leukemia,> 100 µM
same,TGI,RPMI-8226 leukemia,> 100 µM
same,TGI,T-47D breast,> 100 µM
same,TGI,TK-10 renal,> 100 µM
same,TGI,NCI/ADR-RES ovarian,> 100 µM
same,TGI,OVCAR-5 ovarian,> 100 µM
same,TGI,HOP-62 NSCLC,> 100 µM
same,TGI,HT29 colon,> 100 µM
same,TGI,SK-MEL-2 melanoma,> 100 µM
same,TGI,SF-295 CNS,> 100 µM
same,TGI,MDA-MB-435,> 100 µM
same,TGI,HL-60(TB) leukemia,> 100 µM
same,TGI,OVCAR-3 ovarian,> 100 µM
same,TGI,SNB-19 CNS,> 100 µM
same,TGI,UACC-257 melanoma,> 100 µM
same,TGI,OVCAR-8 ovarian,> 100 µM
same,TGI,SK-OV-3 ovarian,> 100 µM
same,TGI,MOLT-4 leukemia,> 100 µM
same,TGI,SR leukemia,> 100 µM
same,TGI,786-0 renal,> 100 µM
same,TGI,SN12C renal,> 100 µM
same,TGI,A549 NSCLC,> 100 µM
Clc1ccc(Cc2nc3cc(Cl)c(Cl)cc3n2CC2CCCN3CCCCC23)cc1Cl (stereo not given),TGI,SW-620 colon,4.9 µM
same,TGI,HCC-2998 colon,3.45 µM
same,TGI,SF-268 CNS,15.8 µM
same,TGI,RXF 393 renal,30.7 µM
same,TGI,PC-3 prostate,14.1 µM
same,TGI,U251 CNS,13.7 µM
same,TGI,BT-549 breast,21.4 µM
same,TGI,MALME-3M melanoma,3.91 µM
same,TGI,M14 melanoma,4.04 µM
same,TGI,SF-539 CNS,4.17 µM
same,TGI,SNB-75 CNS,12 µM
same,TGI,KM12 colon,7.51 µM
same,TGI,CAKI-1 renal,15.9 µM
same,TGI,DU-145 prostate,19.4 µM
same,TGI,A498 renal,21 µM
same,TGI,HS 578T breast,19.2 µM
same,TGI,EKVX NSCLC,11.1 µM
same,TGI,NCI-H460 lung,9.75 µM
same,TGI,MDA-MB-231 breast,7.84 µM
same,TGI,SK-MEL-5 melanoma,4.38 µM
same,TGI,OVCAR-4 ovarian,20.3 µM
same,TGI,NCI-H226 lung,26.8 µM
same,TGI,SK-MEL-28 melanoma,10.7 µM
same,TGI,LOX IMVI melanoma,6 µM
same,TGI,MCF7 breast,7.15 µM
same,TGI,COLO 205 colon,4.83 µM
same,TGI,NCI-H522 lung,3.54 µM
same,TGI,HOP-92 NSCLC,22.8 µM
same,TGI,UO-31 renal,1.25 µM
same,TGI,ACHN renal,16.1 µM
same,TGI,UACC-62 melanoma,5.42 µM
same,TGI,MDA-N,16.5 µM
same,TGI,IGROV1 ovarian,15.4 µM
same,TGI,HCT-116 colon,10.7 µM
same,TGI,HCT-15 colon,17.1 µM
same,TGI,K-562 leukemia,> 100 µM
same,TGI,RPMI-8226 leukemia,> 100 µM
same,TGI,T-47D breast,33.4 µM
same,TGI,TK-10 renal,19.5 µM
same,TGI,NCI/ADR-RES ovarian,17.2 µM
same,TGI,OVCAR-5 ovarian,12.3 µM
same,TGI,HOP-62 NSCLC,24.5 µM
same,TGI,HT29 colon,6.85 µM
same,TGI,SK-MEL-2 melanoma,19.7 µM
same,TGI,SF-295 CNS,10.5 µM
same,TGI,MDA-MB-435,17.2 µM
same,TGI,HL-60(TB) leukemia,5.93 µM
same,TGI,OVCAR-3 ovarian,33.2 µM
same,TGI,SNB-19 CNS,8.2 µM
same,TGI,UACC-257 melanoma,10.6 µM
same,TGI,OVCAR-8 ovarian,22.6 µM
same,TGI,SK-OV-3 ovarian,13.4 µM
same,TGI,MOLT-4 leukemia,> 100 µM
same,TGI,SR leukemia,7.6 µM
same,TGI,786-0 renal,12.7 µM
same,TGI,SN12C renal,15.8 µM
same,TGI,A549 NSCLC,20 µM
